# Assays:
# Type in all cases: functional
# [1] = tested on: Rattus norvegicus; test: Anti-inflammatory activity against carrageenan-induced paw oedema in Wistar albino rat assessed as hind paw thickness at 50 mg/kg, po pretreated for 1 hr followed by carrageenan challenge measured immediately by caliper method (reference value: 3.58 +/- 0.34 millimeter)
# [2] = tested on: Rattus norvegicus; test: Anti-inflammatory activity against carrageenan-induced paw oedema in Wistar albino rat assessed as hind paw thickness at 50 mg/kg, po pretreated for 1 hr followed by carrageenan challenge measured after 3 hrs by caliper method (reference value: 8.45 +/- 0.64 millimeter)
# [3] = tested on: Rattus norvegicus; test: Anti-inflammatory activity against carrageenan-induced paw oedema in Wistar albino rat assessed as hind paw thickness at 50 mg/kg, po pretreated for 1 hr followed by carrageenan challenge measured after 5 hrs by caliper method (reference value: 8.37 +/- 0.64 millimeter)
# [4] = tested on: Rattus norvegicus; test: Anti-inflammatory activity against carrageenan-induced paw oedema in Wistar albino rat assessed as reduction in hind paw thickness at 50 mg/kg, po pretreated for 1 hr followed by carrageenan challenge measured after 3 hrs by caliper method relative to control; design: scale not given: the % may be the effect or the level left
# [5] = tested on: Rattus norvegicus; test: Anti-inflammatory activity against carrageenan-induced paw oedema in Wistar albino rat assessed as reduction in hind paw thickness at 50 mg/kg, po pretreated for 1 hr followed by carrageenan challenge measured after 5 hrs by caliper method relative to control; design: scale not given: the % may be the effect or the level left
# [6] = tested on: Rattus norvegicus; test: Anti-inflammatory activity against carrageenan-induced paw oedema in Wistar albino rat assessed as reduction in TNFalpha level at 50 mg/kg, po pretreated for 1 hr followed by carrageenan challenge by ELISA relative to control; design: scale not given: the % may be the effect or the level left
# [7] = tested on: Rattus norvegicus; test: Anti-inflammatory activity against carrageenan-induced paw oedema in Wistar albino rat assessed as reduction in nitrite level at 50 mg/kg, po pretreated for 1 hr followed by carrageenan challenge by Griess assay relative to control; design: scale not given: the % may be the effect or the level left
# [8] = tested on: Rattus norvegicus; test: Anti-inflammatory activity against carrageenan-induced paw oedema in Wistar albino rat assessed as reduction in PGE2 level at 50 mg/kg, po pretreated for 1 hr followed by carrageenan challenge by ELISA relative to control; design: scale not given: the % may be the effect or the level left
# [9] = tested on: Mus musculus; test: Antiinflammatory activity in mouse assessed as inhibition of croton oil-induced ear edema at 1 mg/ear administered topically pretreated for 1 hr followed by croton oil addition and measured after 4 hrs relative to control; design: scale not given: the % may be the effect or the level left
# [10] = tested on: Rattus norvegicus; test: Anti-inflammatory activity in Wistar albino rat assessed as inhibition of cotton pellet-induced granuloma at 50 mg/kg administered once daily for 7 days measured on day 8 relative to control; design: scale not given: the % may be the effect or the level left
# [11] = tested on: Rattus norvegicus; test: Anti-inflammatory activity against carrageenan-induced paw oedema in Wistar albino rat assessed as hind paw thickness at 10 mg/kg, po pretreated for 1 hr followed by carrageenan challenge measured immediately by caliper method (reference value: 3.58 +/- 0.34 millimeter)
# [12] = tested on: Rattus norvegicus; test: Anti-inflammatory activity against carrageenan-induced paw oedema in Wistar albino rat assessed as hind paw thickness at 10 mg/kg, po pretreated for 1 hr followed by carrageenan challenge measured after 3 hrs by caliper method (reference value: 8.45 +/- 0.64 millimeter)
# [13] = tested on: Rattus norvegicus; test: Anti-inflammatory activity against carrageenan-induced paw oedema in Wistar albino rat assessed as hind paw thickness at 10 mg/kg, po pretreated for 1 hr followed by carrageenan challenge measured after 5 hrs by caliper method (reference value: 8.37 +/- 0.64 millimeter)
# [14] = tested on: Rattus norvegicus; test: Anti-inflammatory activity against carrageenan-induced paw oedema in Wistar albino rat assessed as reduction in TNFalpha level at 10 mg/kg, po pretreated for 1 hr followed by carrageenan challenge by ELISA relative to control; design: scale not given: the % may be the effect or the level left
# [15] = tested on: Rattus norvegicus; test: Anti-inflammatory activity against carrageenan-induced paw oedema in Wistar albino rat assessed as reduction in nitrite level at 10 mg/kg, po pretreated for 1 hr followed by carrageenan challenge by Griess assay relative to control; design: scale not given: the % may be the effect or the level left
# [16] = tested on: Rattus norvegicus; test: Anti-inflammatory activity against carrageenan-induced paw oedema in Wistar albino rat assessed as reduction in PGE2 level at 10 mg/kg, po pretreated for 1 hr followed by carrageenan challenge by ELISA relative to control; design: scale not given: the % may be the effect or the level left
# [17] = tested on: Mus musculus; test: Antiinflammatory activity in mouse assessed as inhibition of croton oil-induced ear edema at 0.5 mg/ear administered topically pretreated for 1 hr followed by croton oil addition and measured after 4 hrs relative to control; design: scale not given: the % may be the effect or the level left
# [18] = tested on: Rattus norvegicus; test: Anti-inflammatory activity in Wistar albino rat assessed as inhibition of cotton pellet-induced granuloma at 10 mg/kg administered once daily for 7 days measured on day 8 relative to control; design: scale not given: the % may be the effect or the level left
SMILES,Activity [1] [mm],Activity [2] [mm],Activity [3] [mm],further results
O=C1/C(=C/c2ccc(F)cc2)CNCC12[C@@H](c1ccc(F)cc1)[C@@H]1CCCCN1[C@@]21C(=O)Nc2ccccc21 (some centres undefined),3.62,7.18,6.9,–
O=C1/C(=C/c2ccc(Cl)cc2)CNCC12[C@@H](c1ccc(Cl)cc1)[C@@H]1CCCCN1[C@@]21C(=O)Nc2ccccc21 (some centres undefined),3.62,8.16,8,–
Cc1ccc(/C=C2\CNCC3(C2=O)[C@@H](c2ccc(C)cc2)[C@@H]2CCCCN2[C@@]32C(=O)Nc3ccccc32)cc1 (some centres undefined),3.55,3.87,3.74,Activity [4]: 54.07%; Activity [5]: 55.3%; Activity [6]: 36.23%; Activity [7]: 42.99%; Activity [8]: 35.23%; Activity [9]: 47.53 - 54.53%; Activity [10]: 24.17 - 33.23%
O=C1/C(=C/c2ccccc2Br)CNCC12[C@@H](c1ccccc1Br)[C@@H]1CCCCN1[C@@]21C(=O)Nc2ccccc21 (some centres undefined),3.54,7,6.2,–
COc1ccc(/C=C2\CNCC3(C2=O)[C@@H](c2ccc(OC)cc2)[C@@H]2CCCCN2[C@@]32C(=O)Nc3ccccc32)cc1 (some centres undefined),3.58,3.75,3.72,Activity [4]: 55.61%; Activity [5]: 55.54%; Activity [6]: 38.52%; Activity [7]: 41.22%; Activity [8]: 34.1%; Activity [9]: 48.32 - 49.02%; Activity [10]: 32.48 - 37.21%
O=C1/C(=C/c2ccccc2F)CNCC12[C@@H](c1ccccc1F)[C@@H]1CCCCN1[C@@]21C(=O)Nc2ccccc21 (some centres undefined),3.61,6.53,6.13,–
Cc1ccccc1/C=C1\CNCC2(C1=O)[C@@H](c1ccccc1C)[C@@H]1CCCCN1[C@@]21C(=O)Nc2ccccc21 (some centres undefined),3.63,7.5,7.41,–
O=C1/C(=C/c2ccccc2Cl)CNCC12[C@@H](c1ccccc1Cl)[C@@H]1CCCCN1[C@@]21C(=O)Nc2ccccc21 (some centres undefined),3.59,6.54,7.18,–
O=C1/C(=C/c2ccc(Cl)cc2Cl)CNCC12[C@@H](c1ccc(Cl)cc1Cl)[C@@H]1CCCCN1[C@@]21C(=O)Nc2ccccc21 (some centres undefined),3.59,7.12,6.5,–
COc1cccc(/C=C2\CNCC3(C2=O)[C@@H](c2cccc(OC)c2)[C@@H]2CCCCN2[C@@]32C(=O)Nc3ccccc32)c1 (some centres undefined),3.61,8.1,7.62,–
COc1ccccc1/C=C1\CNCC2(C1=O)[C@@H](c1ccccc1OC)[C@@H]1CCCCN1[C@@]21C(=O)Nc2ccccc21 (some centres undefined),3.67,6.31,7,–
O=C1/C(=C/c2ccccc2)CNCC12[C@@H](c1ccccc1)[C@@H]1CCCCN1[C@@]21C(=O)Nc2ccccc21 (some centres undefined),3.61,7.21,6.98,–
O=C1/C(=C/c2ccc(Br)cc2)CNCC12[C@@H](c1ccc(Br)cc1)[C@@H]1CCCCN1[C@@]21C(=O)Nc2ccccc21 (some centres undefined),3.58,7.62,7.7,–
Cc1cccc(/C=C2\CNCC3(C2=O)[C@@H](c2cccc(C)c2)[C@@H]2CCCCN2[C@@]32C(=O)Nc3ccccc32)c1 (some centres undefined),3.58,8.16,7.82,–
COc1ccc2c(c1)c(CC(=O)O)c(C)n2C(=O)c1ccc(Cl)cc1 [INDOMETHACIN],–,–,–,Activity [11]: 3.61 mm; Activity [12]: 3.86 mm; Activity [13]: 3.83 mm; Activity [14]: 37.13%; Activity [15]: 41.64%; Activity [16]: 33.88%; Activity [17]: 53.56%; Activity [18]: 39.7%

# Source: ChEMBL document CHEMBL4152255, “Functionalized spirooxindole-indolizine hybrids: Stereoselective green synthesis and evaluation of anti-inflammatory effect involving TNF-α and nitrite inhibition” (2018)
